Values of other authors, collected in patent publication US7671073B2, “Cyclohexylalanine derivatives as dipeptidyl peptidase-IV inhibitors for the treatment or prevention of diabetes” (Merck Sharp & Dohme Corp., priority 2004, dated 2010).
One block for each compound: values may come before it.

Key:
[1] = rats; Transplantation, 63: 1495-1500 (1997)
[2] = mouse, cyclophosphamide-induced neutropenia; WO 99/56753
DP-IV = molecular target: T1, DP-IV (Homo sapiens, UniProt P27487)
T1 construct: GRF is rapidly degraded in plasma to GRF[3-44]
T1 sequence (P27487 whole entry): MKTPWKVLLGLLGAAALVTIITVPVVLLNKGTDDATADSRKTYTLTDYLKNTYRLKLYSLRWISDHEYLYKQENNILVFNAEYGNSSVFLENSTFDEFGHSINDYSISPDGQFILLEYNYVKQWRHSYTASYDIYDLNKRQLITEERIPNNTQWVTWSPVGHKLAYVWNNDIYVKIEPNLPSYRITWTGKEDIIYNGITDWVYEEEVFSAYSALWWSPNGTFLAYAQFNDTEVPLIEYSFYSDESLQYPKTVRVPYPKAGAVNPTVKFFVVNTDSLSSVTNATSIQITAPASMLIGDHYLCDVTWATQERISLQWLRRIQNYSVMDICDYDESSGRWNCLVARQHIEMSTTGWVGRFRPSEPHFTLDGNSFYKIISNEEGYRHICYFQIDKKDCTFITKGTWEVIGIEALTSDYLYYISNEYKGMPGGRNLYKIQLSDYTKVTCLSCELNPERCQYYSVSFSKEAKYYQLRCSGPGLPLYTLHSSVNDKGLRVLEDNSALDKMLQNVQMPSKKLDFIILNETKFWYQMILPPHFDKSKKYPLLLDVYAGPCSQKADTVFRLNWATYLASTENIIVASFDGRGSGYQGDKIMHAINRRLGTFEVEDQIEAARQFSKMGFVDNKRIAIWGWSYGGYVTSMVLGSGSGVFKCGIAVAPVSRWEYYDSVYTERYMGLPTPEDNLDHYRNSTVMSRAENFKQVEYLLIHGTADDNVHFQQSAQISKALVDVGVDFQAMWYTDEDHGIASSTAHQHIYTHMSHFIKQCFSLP

Compound: CC(C)N1CCC(c2ccccc2)(c2ccccc2)CC1 [Prodipine, Pro-Pro-diphenyl-phosphonate]
cardiac allograft survival [1]: double cardiac allograft survival in rats from day 7 to day 14

Compound: CC(C)[C@H](N)C(=O)N1CCC[C@H]1B(O)O [Val-Boro-Pro]
hematopoiesis [2]: stimulated hematopoiesis

degradation of GRF to GRF[3-44] in plasma (DP-IV): prevented
Compound: diprotin A
